{
  "source": "paper PMC10510381",
  "about": "“Alkyne as a Latent Warhead to Covalently Target SARS-CoV-2 Main Protease” (Journal of Medicinal Chemistry, 2023)",
  "target": "C145A mutant of M^pro (Severe acute respiratory syndrome coronavirus 2, UniProt P0DTD1, C3408A)",
  "format": "cell-based, SARS-CoV-2",
  "data": [
    {"compound": "C#CC[C@H](NC(=O)C(F)(F)F)C(=O)N1C[C@H]2[C@@H]([C@H]1C(=O)N[C@H](C#C)C[C@@H]1CCNC1=O)C2(C)C", "note": "[Alk-4d, O=C1NCC[C@H]1C[C@@H](C#C)NC([C@H]2N(C([C@@H](NC(C(F)(F)F)=O)CC#C)=O)C[C@H]3[C@@H]2C3(C)C)=O]", "values": [
      {"measurement": "labeling of C145A mutant of M^pro in cells", "result": "no labeling"}
    ]}
  ]
}
